Measured values published in publication PMC9370283, “New Quinoxaline-Based Derivatives as PARP-1 Inhibitors: Design, Synthesis, Antiproliferative, and Computational Studies” (Molecules, 2022).

Experiments:
MDA-MB-436 cells [1] = test: Cyto-ID autophagy assay, flow cytometry; details: IC50 value of compound, 24 h
Description: medium was used as a negative control.
(§1) Mean net fluorescent intensities (NFI) were quantified.

MDA-MB-436 cells [2] = test: cell cycle analysis, PI staining, flow cytometry; details: IC50 concentration 2.57 µM, 48 h
Description: medium was used as a negative control.
as §1

PARP-1 = biological target: T1, PARP-1 (Homo sapiens, UniProt P09874); test: colorimetric 96-well PARP-1 assay kit (BPS Bioscience); format: biochemical
T1 construct: purchased BPS Bioscience 80580
T1 sequence (P09874 whole entry): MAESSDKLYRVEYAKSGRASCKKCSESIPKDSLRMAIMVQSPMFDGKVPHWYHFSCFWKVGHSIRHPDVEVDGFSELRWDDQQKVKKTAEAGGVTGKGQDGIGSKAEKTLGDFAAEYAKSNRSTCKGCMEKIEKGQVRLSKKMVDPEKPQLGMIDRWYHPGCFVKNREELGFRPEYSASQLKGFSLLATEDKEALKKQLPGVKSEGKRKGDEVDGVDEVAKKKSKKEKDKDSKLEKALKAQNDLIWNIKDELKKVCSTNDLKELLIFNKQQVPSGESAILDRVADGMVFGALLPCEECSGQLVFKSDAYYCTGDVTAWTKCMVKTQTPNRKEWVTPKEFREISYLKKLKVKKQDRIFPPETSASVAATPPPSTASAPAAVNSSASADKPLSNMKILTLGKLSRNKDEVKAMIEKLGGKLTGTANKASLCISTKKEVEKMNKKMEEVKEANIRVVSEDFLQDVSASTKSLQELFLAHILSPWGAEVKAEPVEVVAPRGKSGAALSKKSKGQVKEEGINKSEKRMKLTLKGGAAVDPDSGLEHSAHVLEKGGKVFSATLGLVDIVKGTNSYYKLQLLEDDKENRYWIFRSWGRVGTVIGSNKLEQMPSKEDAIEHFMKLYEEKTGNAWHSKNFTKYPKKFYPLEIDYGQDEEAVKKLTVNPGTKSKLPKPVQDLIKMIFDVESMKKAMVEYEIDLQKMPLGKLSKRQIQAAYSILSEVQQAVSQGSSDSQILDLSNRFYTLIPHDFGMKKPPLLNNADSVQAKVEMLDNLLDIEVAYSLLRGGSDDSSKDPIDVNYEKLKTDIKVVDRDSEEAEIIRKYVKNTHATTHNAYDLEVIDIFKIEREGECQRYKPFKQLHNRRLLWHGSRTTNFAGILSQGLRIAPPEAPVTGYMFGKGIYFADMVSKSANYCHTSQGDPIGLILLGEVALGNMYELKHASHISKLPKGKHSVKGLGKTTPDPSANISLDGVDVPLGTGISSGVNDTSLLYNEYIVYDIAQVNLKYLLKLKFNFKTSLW

MDA-MB-436 cells [3] = test: Annexin V-FITC/PI apoptosis assay, flow cytometry; details: IC50 concentration, 48 h
Description: medium was used as a negative control.
as §1

MDA-MB-436 = test: in vitro cytotoxicity, MTT assay, MDA-MB-436; details: for % viability MDA-MB-436: MTT lab report
WI-38 = test: cytotoxicity against normal cells, MTT assay, WI-38; format: cell-based; details: Homo sapiens, normal cell line, read-out: IC50 (mean ± SEM) WI-38
Description: It has been reported that the frequency and severity of the side effects on normal healthy cells at therapeutic levels are deemed to be critical factors that distinguish different anticancer drugs from each other. […]
to the wells designated as “Blank”. The amount of PARP-1 required for the assay was then calculated. The reaction was initiated by adding 20 µL of diluted PARP-1 en zy me to the wells designated “Positive Control” and “Test Inhibitor Control”. The strip wells were incubated at room temperature for 1 hou r. The strip wells were then wash ed three times with 200 µL of PBST buffer.
Then, 50 µL of 50 times diluted Streptavidin-HRP with blocking buffer was added to each well, and the strips were further incubated at room temperature for 30 min. After washing the wells three times with 200 µL of PBST buffer, HRP colorimetric substrate was added to each well, and the plate was incubated at room temperature until a blue color was developed in the positive control well. Then, the reaction was quenched with 100 µL per well of 2 M sulfuric acid. Carrier solvent (DMSO 5%, v/v) was used as a negative control. All compounds including Ol ap arib were t ested at 5 concentrations (100, 10, 1, 0.1, and 0.01 µM). The optical density (OD) of each well was measured spectrophotometrically at 450 nm with an ELISA microplate reader (ChroMate-4300, FL, USA). The IC50 values were calculated according to the equation for Boltzmann sigmoidal concentration-response curves using the nonlin ear regression fitting model (GraphPad Prism Version 8). All assays were performed in triplicate in 3 repeated experiments. The obtained data are presented as means standard error of the means from 3 independent repeats (n = 3).
4.3.In vitro anticancer screening
The cell lines were purchased from the American Type Culture collection as follows:
Breast Cancer cell lines (MDA-MB-436) and WI38. Cytotoxic activity screening was performed using MTT assay. Exponentially, cells were placed in 10^4 cells/ well for 24 h, and then add fresh med ium containing different concen trations of the tested sample. Serial two-fold dilutions of the tested sample were added using a multichannel pipette. Moreover, all cells were cultivated at 37 °C, with 5% CO2 and 95% humidity. Also, incubation of control cells occurred at 3 7 ° C . […] Rinse the wells using water until no stain. After that, add 30% g lacial acetic acid to all wells with shaking plates on a Microplate reader (TECAN, Inc.) to measure the absorbance, using a test wavelength of 490 nm. Besides, compare the treated samples with the control cell. The cytotoxicity was estimated by IC50 in (μg /mL), the concentration that inhibits 50% of the growth of the examined cell.

Cc1cc(C)n(S(=O)(=O)c2ccc3[nH]c(=O)c(=O)[nH]c3c2)n1 [Compound 5, 6-((3,5-Dimethyl-1H-pyrazol-1-yl)sulfonyl)-1,4-dihydroquinoxaline-2,3-dione]
increase of autophagic cell death (MDA-MB-436 cells [1]): 68.65% | cell number in sub-G1 stage (MDA-MB-436 cells [2]; control 1.76%): 1.66% | percentage of cells in G2 stage (MDA-MB-436 cells [2]; control 25.12%): 30.39% | cell distribution in G1 phase (MDA-MB-436 cells [2]; control 51.96%): 40.89% | fold higher PARP-1 inhibitory activity than Olaparib (PARP-1; ratio of IC50 values): 1.5 fold | IC50 (PARP-1; read-out: IC50 (mean ± SEM) PARP-1): 3.05 ± 0.16 nM | normal intact cells (Q2-3) (MDA-MB-436 cells [3]): 96.98% | early apoptotic cell population (Q2-4) (MDA-MB-436 cells [3]; control 0.14%): 0.27% | late apoptotic cell population (Q2-2) (MDA-MB-436 cells [3]; control 0.98%): 1.02% | necrotic cell population (Q2-1) (MDA-MB-436 cells [3]; control 1.11%): 1.72% | SI (MDA-MB-436; MDA-MB-436, matches IC50 WI-38 / IC50 MDA-MB-436): 31.77 | % viability MDA-MB-436 (MDA-MB-436; log conc. 0.193 (1.6uM)): 53.46% | % viability MDA-MB-436 (MDA-MB-436; log conc. 0.796 (6.3uM)): 45.17% | % viability MDA-MB-436 (MDA-MB-436; log conc. 1.398 (25uM)): 37.05% | % viability MDA-MB-436 (MDA-MB-436; log conc. 2 (100uM)): 28.36% | % viability MDA-MB-436 (MDA-MB-436; log conc. -0.409 (0.4uM)): 60.26% | IC50 (MDA-MB-436; read-out: IC50 (mean ± SEM) MDA-MB-436, mutant BRCA1 breast cancer cells, MTT): 2570 ± 150 nM | times more potent than the reference drug (antiproliferative, MDA-MB-436) (MDA-MB-436; versus Olaparib): approximately 4 times | IC50 (WI-38): 81700 ± 1700 nM
